The record followed here is ChEMBL document CHEMBL5512632, “Unlocking the potential of 1,4-naphthoquinones: A comprehensive review of their anticancer properties” (Eur J Med Chem, 2024).

The test system of one assay is HCT-15. Description: Cytotoxicity against human HCT-15 cells incubated for 48 hrs by MTT assay. The assay is classed as functional, cell-based. To be noted: HCT-15, 48 h.
Another assay deals with MDA-MB-231. Nature of the assay: Cytotoxicity against human MDA-MB-231 cells incubated for 48 hrs by MTT assay. The format is functional, cell-based. To be noted: MDA-MB-231, 48 h.
A further assay concerns Bel-7402. Nature of the assay: Cytotoxicity against human Bel-7402 cells incubated for 48 hrs by MTT assay. The assay is classed as functional, cell-based. To be noted: Bel-7402, 48 h.
Assay [1] deals with HCT-116. Description: Cytotoxicity against human HCT-116 cells incubated for 48 hrs by MTT assay. The assay is classed as functional, cell-based. To be noted: HCT-116, 48 h.
A further assay deals with A2780. Description: Cytotoxicity against human A2780 cells incubated for 48 hrs by MTT assay. The assay is classed as functional, cell-based. To be noted: A2780, 48 h.
A further assay relates to HepG2. Nature of the assay: Antiproliferative activity against human HepG2 cells assessed as inhibition of cell growth incubated upto 48 hrs by MTT assay. To be noted: HepG2, 48 h. The format is functional, cell-based.
A further assay deals with U-87 MG. Nature of the assay: Antitumor activity against human U87 cells xenografted in BALB/c mouse assessed as increase in survival time of animal at 1 mg/kg,ip administrated once every 3 days for 40 days. The assay is classed as functional, U-87MG ATCC. To be noted: time 40 day.
For a further assay, the system named is SBcl2. Description: Antiproliferative activity against human SBcl2 cells assessed as inhibition of cell growth incubated for 72 hrs by XTT assay. The assay is classed as functional, cell-based. To be noted: SBcl2, 72 h.
Assay [2] in a line: Antiproliferative activity against human WM9 cells assessed as inhibition of cell growth incubated for 72 hrs by XTT assay. The format is functional, cell-based. To be noted: WM9, 72 h.
The test system of a further assay is WM164. Nature of the assay: Antiproliferative activity against human WM164 cells assessed as inhibition of cell growth incubated for 72 hrs by XTT assay. To be noted: WM164, 72 h. The assay is classed as functional, cell-based.
The test system of another assay is MUGMel2. Nature of the assay: Antiproliferative activity against human MUG-Mel2 cells assessed as inhibition of cell growth incubated for 72 hrs by XTT assay. To be noted: MUGMel2, 72 h. The format is functional, cell-based.
The nature of assay [3]: Antiproliferative activity against human FS-1 [Human leukemia] cells assessed as inhibition of cell growth incubated for 72 hrs by XTT assay. The assay is classed as functional, cell-based.
Assay [4] concerns AGS. Description: Cytotoxicity against human AGS cells incubated for 24 hrs by MTS assay. The assay is classed as functional, cell-based.
The next assay concerns MCF7. Nature of the assay: Antiproliferative activity against human MCF7 cells assessed as inhibition of cell growth incubated for 24 hrs by MTT assay. The format is functional, cell-based. To be noted: MCF7, 24 h.
In assay [5] the test system is HCT-116. Description: Antiproliferative activity against human HCT-116 cells assessed as inhibition of cell growth incubated for 24 hrs by MTT assay. The assay is classed as functional, cell-based. To be noted: HCT-116, 24 h.
Assay [6] has as its system C6. Nature of the assay: Antiproliferative activity against rat C6 cells assessed as inhibition of cell growth incubated for 48 hrs by MTS/PMS assay. The format is functional, cell-based. To be noted: C6, 48 h.
Assay [7] deals with C6. Nature of the assay: Antitumor activity against rat C6 cells implanted in Wistar rat assessed as reduction in tumor volume at 100 mg/kg,IG administration once daily for 20 days. Also on record: scale not given: the % may be the effect or the level left. To be noted: time 20 day. The assay is classed as functional.
In another assay the test system is OVCAR-5. Nature of the assay: Cytotoxicity against human OVCAR-5 cells assessed as reduction in cell growth incubated for 24 hrs by DAPI staining based fluorescence imaging analysis. The assay is classed as functional. To be noted: OVCAR-5, 24 h.
The test system of a further assay is SK-OV-3. Description: Cytotoxicity against human SK-OV-3 cells assessed as reduction in cell growth incubated for 24 hrs by DAPI staining based fluorescence imaging analysis. The assay is classed as functional. To be noted: SK-OV-3, 24 h.
For the next assay, the system named is MOLM-14. Nature of the assay: Cytotoxicity against human MOLM-14 cells incubated for 48 hrs. To be noted: MOLM-14, 48 h. The format is functional, cell-based.
A further assay has as its system MV4-11. Description: Cytotoxicity against human MV4-11 cells incubated for 48 hrs. The assay is classed as functional, cell-based. To be noted: MV4-11, 48 h.
Another assay has as its system HL-60. Nature of the assay: Antiproliferative activity against human HL-60 cells assessed as inhibition of cell growth incubated for 72 hrs by MTT assay. To be noted: HL-60, 72 h. The format is functional, cell-based.
The test system of assay [8] is AGS. Description: Antiproliferative activity against human AGS cells assessed as inhibition of cell growth incubated for 72 hrs by MTT assay. The assay is classed as functional, cell-based.
The test system of another assay is SK-MES-1. Nature of the assay: Antiproliferative activity against human SK-MES-1 cells assessed as inhibition of cell growth incubated for 72 hrs by MTT assay. The format is functional, cell-based. To be noted: SK-MES-1, 72 h.
In another assay the test system is J82. Nature of the assay: Antiproliferative activity against human J82 cells assessed as inhibition of cell growth incubated for 72 hrs by MTT assay. The format is functional, cell-based. To be noted: J82, 72 h.

For `CCCCCCCCC(OCCC(C)C)c1ccc2c(c1OC)/C(=N\O)C=C/C2=N\O` (stereo not given), the IC50 in the assay on HCT-15 was 36.4 µM; in the assay with MDA-MB-231 it was 0.66 µM; in the assay on Bel-7402, 5.11 µM; in the assay with HCT-116 [1], 21.5 µM; in the assay on A2780 it was 8.26 µM.

With `O=C1C=CC(=O)c2c(O)cccc21` [JUGLONE], the IC50 in the assay with HepG2 stood at 20.4 µM. The Activity in the assay on U-87 MG turned out to be 23.6%.

For the compound `CC(C)=C/C=C/C1=C(C(CC=C(C)C)C2=CC(=O)c3c(O)ccc(O)c3C2=O)C(=O)c2c(O)ccc(O)c2C1=O` (stereo not given), the concentration for half-maximal inhibition (IC50) in the assay on SBcl2 stood at 0.3 µM; in assay [2], 0.6 µM; with WM164 it was 1.7 µM; in the assay with MUGMel2, 0.7 µM; in assay [3], 0.5 µM.

With `O=C1C=CC(=O)c2ccccc21` [NAPHTHOQUINONE], the IC50 in the assay with AGS [4] was determined as 2.5 µM.

Regarding `CC1=C/C(=N\NC(=O)CCCCCCCCCC(=O)NN)c2ccccc2C1=O`, the IC50 in the assay with MCF7 came out at 56 µM; with HCT-116 [5], 75 µM.

For the compound `CC(C)=CCC1=C(O)C(=O)c2ccccc2C1=O` [LAPACHOL], the IC50 in the assay with C6 [6] amounted to 3.7 µM. Besides, the Activity with C6 [7] stood at 37%.

As to `COc1cc(/C=C/C(=O)/C=C(O)/C=C/c2ccc(OC3=CC(=O)c4ccccc4C3=O)c(OC)c2)ccc1OC1=CC(=O)c2ccccc2C1=O`, the IC50 is 4.05 µM in the assay on OVCAR-5 and 5.35 µM in the assay with SK-OV-3.

As for `O=C1C(NCCO)=C(C2=C(NCCO)C(=O)c3ccccc3C2=O)C(=O)c2ccccc21`, the 50% inhibitory concentration (IC50) came out at 0.16 µM with MOLM-14 and 0.2 µM with MV4-11.

As to `CC(=O)N(C1=C2NCCN=C2c2ccccc2C1=O)c1ccccc1`, the IC50 with HL-60 stood at 11.9 µM; with AGS [8], 15.5 µM; in the assay on SK-MES-1 it was 6.4 µM; with J82, 2 µM.
